Results reported in US20230340011A1 (Asteroid Therapeutics, priority 2022, published 2023).
pEC50: −log10 of the molar value.

These compounds were tested against LXRβ (Homo sapiens (Human), UniProt P55055) (assay: In vitro assay LXRβ: PathHunter NHR CHO cells, LXRβ / Steroid Receptor Co-activator Peptide enzyme fragment complementation). Settings: PathHunter NHR CHO cells, full-length human LXRβ and SRCP, chemiluminescent signal; read-out: LXRβ PPI.
Assay type: cell-based
Description: PathHunter NHR CHO cells stably transfected with tagged full-length human LXRβ and a nuclear fusion protein containing Steroid Receptor Co-activator Peptide (SRCP). The full-length human LXRβ was tagged with the ProLink™ component of the DiscoverX Enzyme Fragment Complementation (EFC) system and the SRCP domain is fused to the enzyme acceptor component (EA) expressed in the nucleus. Cells were seeded in a total volume of 20 μL into white walled, 384-well microplates and incubated at 37° C. overnight prior to testing. Assay media contained charcoal-dextran filtered serum to reduce the level of hormones present. Final assay vehicle concentration was 1%. […] Microplates were read following signal generation with a PerkinElmer Envision instrument for chemiluminescent signal detection.

Chain of LXRβ (P55055 whole entry, the tested form may be a part): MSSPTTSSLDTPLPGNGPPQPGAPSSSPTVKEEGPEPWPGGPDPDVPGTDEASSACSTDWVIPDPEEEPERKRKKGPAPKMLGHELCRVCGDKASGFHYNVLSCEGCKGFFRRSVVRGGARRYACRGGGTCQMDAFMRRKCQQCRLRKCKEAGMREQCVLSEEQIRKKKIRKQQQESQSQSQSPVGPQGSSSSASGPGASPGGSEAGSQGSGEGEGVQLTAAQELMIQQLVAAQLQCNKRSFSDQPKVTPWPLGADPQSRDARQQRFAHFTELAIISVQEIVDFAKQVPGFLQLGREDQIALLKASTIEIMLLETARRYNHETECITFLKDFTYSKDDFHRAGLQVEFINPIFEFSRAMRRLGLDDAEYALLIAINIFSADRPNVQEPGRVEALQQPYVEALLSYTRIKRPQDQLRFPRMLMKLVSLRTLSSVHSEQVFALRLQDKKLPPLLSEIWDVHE

Compound	pEC50
C[C@H](OC(=O)CN(C)C)[C@H]1CC[C@H]2[C@@H]3CC=C4C[C@@H](O)CC[C@]4(C)[C@H]3CC[C@]12C [Example 143, (S)-1-((3S,8S,9S,10R,13S,14S,17S)-3-hydroxy-10,13-dimethyl-2,3,4,7,8,9,10,11,12,13,14,15,16,17-tetradecahydro-1H-cyclopenta[a]phenanthren-17-yl)ethyl dimethylglycinate]	< 5.00
Cc1nnc(N2CCN(C(=O)CC[C@@H](C)[C@H]3CC[C@H]4[C@@H]5CC=C6C[C@@H](O)CC[C@]6(C)[C@H]5CC[C@]34C)CC2)s1 [Example 225, (R)-4-((3S,8S,9S,10R,13R,14S,17R)-3-hydroxy-10,13-dimethyl-2,3,4,7,8,9,10,11,12,13,14,15,16,17-tetradecahydro-1H-cyclopenta[a]phenanthren-17-yl)-1-(4-(5-methyl-1,3,4-thiadiazol-2-yl)piperazin-1-yl)pentan-1-one]	< 5.00
C[C@@H](NC(=O)C(=O)N(C)C)[C@H]1CC[C@H]2[C@@H]3CC=C4C[C@@H](O)CC[C@]4(C)[C@H]3CC[C@]12C (single isomer, unassigned) [Example 119]	< 5.00
CON(CC(=O)OC(C)(C)C)C(=O)CC[C@@H](C)[C@H]1CC[C@H]2[C@@H]3CC=C4C[C@@H](O)CC[C@]4(C)[C@H]3CC[C@]12C [Example 75, tert-butyl N—((R)-4-((3S,8S,9S,10R,13R,14S,17R)-3-hydroxy-10,13-dimethyl-2,3,4,7,8,9,10,11,12,13,14,15,16,17-tetradecahydro-1H-cyclopenta[a]phenanthren-17-yl)pentanoyl)-N-methoxyglycinate]	6.00 to 6.60
COC(=O)N1CCN(C(=O)OC[C@@H](C)[C@H]2CC[C@H]3[C@@H]4CC=C5C[C@@H](O)CC[C@]5(C)[C@H]4CC[C@]23C)CC1 [Example 238, 1-(2S)-2-[(1R,3aS,3bS,7S,9aR,9bS,11aS)-7-hydroxy-9a,11a-dimethyl-1H,2H,3H,3aH,3bH,4H,6H,7H,8H,9H,9aH,9bH,10H,11H,11aH-cyclopenta[a]phenanthren-1-yl]propyl 4-methyl piperazine-1,4-dicarboxylate]	< 5.00
CC(=O)N1CCN(C(=O)CC[C@@H](C)[C@H]2CC[C@H]3[C@@H]4CC=C5C[C@@H](O)CC[C@]5(C)[C@H]4CC[C@]23C)C[C@@H]1C [Example 277, (R)-1-((S)-4-acetyl-3-methylpiperazin-1-yl)-4-((3S,8S,9S,10R,13R,14S,17R)-3-hydroxy-10,13-dimethyl-2,3,4,7,8,9,10,11,12,13,14,15,16,17-tetradecahydro-1H-cyclopenta[a]phenanthren-17-yl)pentan-1-one]	< 5.00
C[C@H](CCC(=O)N1CCC(Oc2cnccn2)CC1)[C@H]1CC[C@H]2[C@@H]3CC=C4C[C@@H](O)CC[C@]4(C)[C@H]3CC[C@]12C [Example 220, (R)-4-((3S,8S,9S,10R,13R,14S,17R)-3-hydroxy-10,13-dimethyl-2,3,4,7,8,9,10,11,12,13,14,15,16,17-tetradecahydro-1H-cyclopenta[a]phenanthren-17-yl)-1-(4-(pyrazin-2-yloxy)piperidin-1-yl)pentan-1-one]	5.00 to 6.00
C[C@H](CCC(=O)N1OCC[C@@H]1C)[C@H]1CC[C@H]2[C@@H]3CC=C4C[C@@H](O)CC[C@]4(C)[C@H]3CC[C@]12C [Example 57, (R)-4-((3S,8S,9S,10R,13R,14S,17R)-3-hydroxy-10,13-dimethyl-2,3,4,7,8,9,10,11,12,13,14,15,16,17-tetradecahydro-1H-cyclopenta[a]phenanthren-17-yl)-1-((S)-3-methylisoxazolidin-2-yl)pentan-1-one]	6.00 to 6.60
CNC(=O)C(=O)O[C@@H](C)[C@H]1CC[C@H]2[C@@H]3CC=C4C[C@@H](O)CC[C@]4(C)[C@H]3CC[C@]12C [Example 145, (S)-1-((3S,8S,9S,10R,13S,14S,17S)-3-hydroxy-10,13-dimethyl-2,3,4,7,8,9,10,11,12,13,14,15,16,17-tetradecahydro-1H-cyclopenta[a]phenanthren-17-yl)ethyl 2-(methylamino)-2-oxoacetate]	< 5.00
COCCON(C)C(=O)CC[C@@H](C)[C@H]1CC[C@H]2[C@@H]3CC=C4C[C@@H](O)CC[C@]4(C)[C@H]3CC[C@]12C [Example 27, (R)-4-((3S,8S,9S,10R,13R,14S,17R)-3-hydroxy-10,13-dimethyl-2,3,4,7,8,9,10,11,12,13,14,15,16,17-tetradecahydro-1H-cyclopenta[a]phenanthren-17-yl)-N-(2-methoxyethoxy)-N-methylpentanamide]	5.00 to 6.00
CC(=O)N1CCC(N(C)C(=O)CC[C@@H](C)[C@H]2CC[C@H]3[C@@H]4CC=C5C[C@@H](O)CC[C@]5(C)[C@H]4CC[C@]23C)CC1 [Example 407, (4R)-4-[(1R,3aS,3bS,7S,9aR,9bS,11aR)-7-hydroxy-9a,11a-dimethyl-1H,2H,3H,3aH,3bH,4H,6H,7H,8H,9H,9aH,9bH,10H,11H,11aH-cyclopenta[a]phenanthren-1-yl]-N-(1-acetylpiperidin-4-yl)-N-methylpentanamide]	< 5.00
CC(C)C(=O)N1CCN(C(=O)CC[C@@H](C)[C@H]2CC[C@H]3[C@@H]4CC=C5C[C@@H](O)CC[C@]5(C)[C@H]4CC[C@]23C)CC1 [Example 315, (R)-4-((3S,8S,9S,10R,13R,14S,17R)-3-hydroxy-10,13-dimethyl-2,3,4,7,8,9,10,11,12,13,14,15,16,17-tetradecahydro-1H-cyclopenta[a]phenanthren-17-yl)-1-(4-isobutyrylpiperazin-1-yl)pentan-1-one]	< 5.00
C[C@H](CCC(=O)N1CCN(Cc2cncnc2)CC1)[C@H]1CC[C@H]2[C@@H]3CC=C4C[C@@H](O)CC[C@]4(C)[C@H]3CC[C@]12C [Example 224, (4R)-4-[(1R,3aS,3bS,7S,9aR,9bS,11aR)-7-hydroxy-9a,11a-dimethyl-1H,2H,3H,3aH,3bH,4H,6H,7H,8H,9H,9aH,9bH,10H,11H,11aH-cyclopenta[a]phenanthren-1-yl]-1-{4-[(pyrimidin-5-yl)methyl]piperazin-1-yl}pentan-1-one]	< 5.00
CO[C@H]1CCCN(C(=O)CC[C@@H](C)[C@H]2CC[C@H]3[C@@H]4CC=C5C[C@@H](O)CC[C@]5(C)[C@H]4CC[C@]23C)C1 [Example 300, (R)-4-((3S,8S,9S,10R,13R,14S,17R)-3-hydroxy-10,13-dimethyl-2,3,4,7,8,9,10,11,12,13,14,15,16,17-tetradecahydro-1H-cyclopenta[a]phenanthren-17-yl)-1-((S)-3-methoxypiperidin-1-yl)pentan-1-one]	6.00 to 6.60
C[C@H](CCC(=O)N(C)OCCCO)[C@H]1CC[C@H]2[C@@H]3CC=C4C[C@@H](O)CC[C@]4(C)[C@H]3CC[C@]12C [Example 30, (R)-4-((3S,8S,9S,10R,13R,14S,17R)-3-hydroxy-10,13-dimethyl-2,3,4,7,8,9,10,11,12,13,14,15,16,17-tetradecahydro-1H-cyclopenta[a]phenanthren-17-yl)-N-(3-hydroxypropoxy)-N-methylpentanamide]	5.00 to 6.00
C[C@H](CCC(=O)N1CCC(Oc2ccncn2)CC1)[C@H]1CC[C@H]2[C@@H]3CC=C4C[C@@H](O)CC[C@]4(C)[C@H]3CC[C@]12C [Example 221, (4R)-4-[(1R,3aS,3bS,7S,9aR,9bS,11aR)-7-hydroxy-9a,11a-dimethyl-1H,2H,3H,3aH,3bH,4H,6H,7H,8H,9H,9aH,9bH,10H,11H,11aH-cyclopenta[a]phenanthren-1-yl]-1-[4-(pyrimidin-4-yloxy)piperidin-1-yl]pentan-1-one]	5.00 to 6.00
CC(=O)N1CCN(C(=O)CC[C@@H](C)[C@H]2CC[C@H]3[C@@H]4CC=C5C[C@@H](O)CC[C@]5(C)[C@H]4CC[C@]23C)[C@@H](C)C1 [Example 428, (4R)-4-[(1R,3aS,3bS,7S,9aR,9bS,11aR)-7-hydroxy-9a,11a-dimethyl-1H,2H,3H,3aH,3bH,4H,6H,7H,8H,9H,9aH,9bH,10H,11H,11aH-cyclopenta[a]phenanthren-1-yl]-1-[(2S)-4-acetyl-2-methylpiperazin-1-yl]pentan-1-one]	< 5.00
C[C@@H]1CCN(C(=O)CC[C@@H](C)[C@H]2CC[C@H]3[C@@H]4CC=C5C[C@@H](O)CC[C@]5(C)[C@H]4CC[C@]23C)O1 [Example 59, (R)-4-((3S,8S,9S,10R,13R,14S,17R)-3-hydroxy-10,13-dimethyl-2,3,4,7,8,9,10,11,12,13,14,15,16,17-tetradecahydro-1H-cyclopenta[a]phenanthren-17-yl)-1-((R)-5-methylisoxazolidin-2-yl)pentan-1-one]	6.00 to 6.60
C[C@H](CCC(=O)N1CCN(c2cnn(C)c2)CC1)[C@H]1CC[C@H]2[C@@H]3CC=C4C[C@@H](O)CC[C@]4(C)[C@H]3CC[C@]12C [Example 214, (R)-4-((3S,8S,9S,10R,13R,14S,17R)-3-hydroxy-10,13-dimethyl-2,3,4,7,8,9,10,11,12,13,14,15,16,17-tetradecahydro-1H-cyclopenta[a]phenanthren-17-yl)-1-(4-(1-methyl-1H-pyrazol-4-yl)piperazin-1-yl)pentan-1-one]	< 5.00
C[C@H](CCC(=O)N(C)OC1CCCC1)[C@H]1CC[C@H]2[C@@H]3CC=C4C[C@@H](O)CC[C@]4(C)[C@H]3CC[C@]12C [Example 61, (R)-4-((3S,8S,9S,10R,13R,14S,17R)-3-hydroxy-10,13-dimethyl-2,3,4,7,8,9,10,11,12,13,14,15,16,17-tetradecahydro-1H-cyclopenta[a]phenanthren-17-yl)-N-(methyl)-N-cyclopentoxypentanamide]	5.00 to 6.00
